Test results as given in patent publication US8476264B2, “N-(3-(2-amino-6,6-difluoro-4,4A,5,6,7,7A-hexahydro-cyclopenta[E][1,3]oxazin-4-yl)-phenylamides as BACE1 inhibitors” (Hoffmann-La Roche Inc., priority 2011, dated 2013).

Target: T1, BACE1 (Homo sapiens, UniProt P56817)
T1 construct: Human HEK293 cells which are stably transfected with a vector expressing a cDNA of the human APP wt gene (APP695); endogenous in cells; host or cells: HEK293 stably transfected with human APP695 wt
Test: Cellular Aβ-lowering assay (Aβ40 ELISA)
Format: cell-based
Conditions: HEK293 cells stably expressing human APP wt (APP695); Aβ40 in supernatant after 18-20 hrs; read-out: BACE1 cell act. Aβ40 IC50
Method: Cellular Aβ-Lowering Assay:
Human HEK293 cells which are stably transfected with a vector expressing a cDNA of the human APP wt gene (APP695) were used to assess the potency of the compounds in a cellular assay. The cells were seeded in 96-well microtiter plates in cell culture medium (Iscove, plus 10% (v/v) fetal bovine serum, glutamine, penicillin/streptomycin) to about 80% confluence and the compounds were added at a 10× concentration in 1/10 volume of medium without FCS containing 8% DMSO (final concentration of DMSO was kept at 0.8% v/v). After 18-20 hrs incubation at 37° C. and 5% CO2 in a humidified incubator the culture supernatant was harvested for the determination of Aβ40 concentrations. 96 well ELISA plates (e.g., Nunc MaxiSorb) were coated with monoclonal antibody which specifically recognize the C-terminal end of Aβ40 (Brockhaus et al., NeuroReport 9, 1481-1486; 1998). After blocking of non-specific binding sites with e.g. 1% BSA and washing, the culture supernatants were added in suitable dilutions together with a horseradish peroxidase-coupled Aβ detection antibody (e.g., antibody 4G8, Senetek, Maryland Heights, Mo.) and incubated for 5 to 7 hrs. Subsequently the wells of the microtiter plate were washed extensively with Tris-buffered saline containing 0.05% Tween 20 and the assay was developed with tetramethylbenzidine/H2O2 in citric acid buffer. After stopping the reaction with one volume 1 N H2SO4 the reaction was measured in an ELISA reader at 450 nm wavelength. The concentrations of Aβ in the culture supernatants were calculated from a standard curve obtained with known amounts of pure Aβ peptide.

T1 sequence (P56817 46-501): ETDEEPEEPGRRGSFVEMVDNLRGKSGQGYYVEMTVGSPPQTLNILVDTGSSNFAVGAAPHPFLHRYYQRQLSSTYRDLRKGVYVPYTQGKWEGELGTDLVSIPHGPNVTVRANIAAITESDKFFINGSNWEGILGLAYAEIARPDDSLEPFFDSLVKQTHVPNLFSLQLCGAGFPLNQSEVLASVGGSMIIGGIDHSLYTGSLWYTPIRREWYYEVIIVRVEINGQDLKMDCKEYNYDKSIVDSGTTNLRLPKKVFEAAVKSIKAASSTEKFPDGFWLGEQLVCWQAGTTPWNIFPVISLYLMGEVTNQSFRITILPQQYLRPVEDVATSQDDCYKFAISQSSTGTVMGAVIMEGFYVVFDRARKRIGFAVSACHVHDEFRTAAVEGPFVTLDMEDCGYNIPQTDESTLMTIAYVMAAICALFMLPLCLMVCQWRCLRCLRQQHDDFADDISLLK

Compound | IC50 [nM]
NC1=N[C@](CF)(c2cc(NC(=O)c3nn(C(F)F)cc3Cl)ccc2F)[C@H]2CC(F)(F)C[C@H]2O1 [Example 35, 4-Chloro-1-difluoromethyl-1H-pyrazole-3-carboxylic acid [(S)-3-((1R,2R)-2-amino-6,6-difluoro-4-fluoromethyl-4,4a,5,6,7,7a-hexahydro-cyclopenta[e][1,3]oxazin-4-yl)-4-fluoro-phenyl]-amide] | 3
NC1=N[C@](CF)(c2cc(NC(=O)c3ncc(F)cc3F)ccc2F)[C@H]2CC(F)(F)C[C@H]2O1 [Example 8, 3,5-Difluoro-pyridine-2-carboxylic acid [(S)-3-((1R,2R)-2-amino-6,6-difluoro-4-fluoromethyl-4,4a,5,6,7,7a-hexahydro-cyclopenta[e][1,3]oxazin-4-yl)-4-fluoro-phenyl]-amide] | 16.9
NC1=N[C@](CF)(c2cc(NC(=O)c3cnc(OCC(F)(F)F)cn3)ccc2F)[C@H]2CC(F)(F)C[C@H]2O1 [Example 22, 5-(2,2,2-Trifluoro-ethoxy)-pyrazine-2-carboxylic acid [(S)-3-((1R,2R)-2-amino-6,6-difluoro-4-fluoromethyl-4,4a,5,6,7,7a-hexahydro-cyclopenta[e][1,3]oxazin-4-yl)-4-fluoro-phenyl]-amide] | 2.5
NC1=N[C@](CF)(c2cc(NC(=O)c3ncc(Cl)cc3Cl)ccc2F)[C@H]2CC(F)(F)C[C@H]2O1 [Example 6, 3,5-Dichloro-pyridine-2-carboxylic acid [(S)-3-((1R,2R)-2-amino-6,6-difluoro-4-fluoromethyl-4,4a,5,6,7,7a-hexahydro-cyclopenta[e][1,3]oxazin-4-yl)-4-fluoro-phenyl]-amide] | 1.7
NC1=N[C@@](c2cc(NC(=O)c3cnc(Cl)cn3)ccc2F)(C(F)F)[C@H]2CC(F)(F)C[C@H]2O1 [Example 39, 5-Chloro-pyrazine-2-carboxylic acid [(S)-3-((1R,2R)-2-amino-4-difluoromethyl-6,6-difluoro-4,4a,5,6,7,7a-hexahydro-cyclopenta[e][1,3]oxazin-4-yl)-4-fluoro-phenyl]-amide] | 1400
Cc1nc(C(=O)Nc2ccc(F)c([C@@]3(CF)N=C(N)O[C@@H]4CC(F)(F)C[C@@H]43)c2)co1 [Example 33, 2-Methyl-oxazole-4-carboxylic acid [(S)-3-((1R,2R)-2-amino-6,6-difluoro-4-fluoromethyl-4,4a,5,6,7,7a-hexahydro-cyclopenta[e][1,3]oxazin-4-yl)-4-fluoro-phenyl]-amide] | 4.8
NC1=N[C@@](c2cc(NC(=O)c3cnc(OCF)cn3)ccc2F)(C(F)F)[C@H]2CC(F)(F)C[C@H]2O1 [Example 38, 5-Fluoromethoxy-pyrazine-2-carboxylic acid [(S)-3-((1R,2R)-2-amino-4-difluoromethyl-6,6-difluoro-4,4a,5,6,7,7a-hexahydro-cyclopenta[e][1,3]oxazin-4-yl)-4-fluoro-phenyl]-amide] | 17
NC1=N[C@](CF)(c2cc(NC(=O)c3cnc(OCC(F)F)cn3)ccc2F)[C@H]2CC(F)(F)C[C@H]2O1 [Example 23, 5-(2,2-Difluoro-ethoxy)-pyrazine-2-carboxylic acid [(S)-3-((1R,2R)-2-amino-6,6-difluoro-4-fluoromethyl-4,4a,5,6,7,7a-hexahydro-cyclopenta[e][1,3]oxazin-4-yl)-4-fluoro-phenyl]-amide] | 7.8
NC1=N[C@@](c2cc(NC(=O)c3ccc(Cl)cn3)ccc2F)(C(F)F)[C@H]2CC(F)(F)C[C@H]2O1 [Example 37, 5-Chloro-pyridine-2-carboxylic acid [(S)-3-((1R,2R)-2-amino-4-difluoromethyl-6,6-difluoro-4,4a,5,6,7,7a-hexahydro-cyclopenta[e][1,3]oxazin-4-yl)-4-fluoro-phenyl]-amide] | 17
COc1cnc(C(=O)Nc2ccc(F)c([C@@]3(CF)N=C(N)O[C@@H]4CC(F)(F)C[C@@H]43)c2)cn1 [Example 30, 5-Methoxy-pyrazine-2-carboxylic acid [(S)-3-((1R,2R)-2-amino-6,6-difluoro-4-fluoromethyl-4,4a,5,6,7,7a-hexahydro-cyclopenta[e][1,3]oxazin-4-yl)-4-fluoro-phenyl]-amide] | 7.6
NC1=N[C@](CF)(c2cc(NC(=O)c3ncc(Cl)cn3)ccc2F)[C@H]2CC(F)(F)C[C@H]2O1 [Example 32, 5-Chloro-pyrimidine-2-carboxylic acid [(S)-3-((1R,2R)-2-amino-6,6-difluoro-4-fluoromethyl-4,4a,5,6,7,7a-hexahydro-cyclopenta[e][1,3]oxazin-4-yl)-4-fluoro-phenyl]-amide] | 7.9

Further lines, results first:

IC50 [nM] | Compound
3.5 | NC1=N[C@](CF)(c2cc(NC(=O)c3cnc(OCF)cn3)ccc2F)[C@H]2CC(F)(F)C[C@H]2O1 [Example 26, 5-Fluoromethoxy-pyrazine-2-carboxylic acid [(S)-3-((1R,2R)-2-amino-6,6-difluoro-4-fluoromethyl-4,4a,5,6,7,7a-hexahydro-cyclopenta[e][1,3]oxazin-4-yl)-4-fluoro-phenyl]-amide]
43 | NC1=N[C@](CF)(c2cc(NC(=O)c3ccc(OCC(F)(F)C(F)(F)F)cn3)ccc2F)[C@H]2CC(F)(F)C[C@H]2O1 [Example 10, 5-(2,2,3,3,3-Pentafluoro-propoxy)-pyridine-2-carboxylic acid [(S)-3-((1R,2R)-2-amino-6,6-difluoro-4-fluoromethyl-4,4a,5,6,7,7a-hexahydro-cyclopenta[e][1,3]oxazin-4-yl)-4-fluoro-phenyl]-amide]
2.8 | NC1=N[C@](CF)(c2cc(NC(=O)c3ccc(C(F)(F)F)cn3)ccc2F)[C@H]2CC(F)(F)C[C@H]2O1 [Example 15, 5-Trifluoromethyl-pyridine-2-carboxylic acid [(S)-3-((1R,2R)-2-amino-6,6-difluoro-4-fluoromethyl-4,4a,5,6,7,7a-hexahydro-cyclopenta[e][1,3]oxazin-4-yl)-4-fluoro-phenyl]-amide]
3.5 | NC1=N[C@](CF)(c2cc(NC(=O)c3ccc(OC(F)F)cn3)ccc2F)[C@H]2CC(F)(F)C[C@H]2O1 [Example 13, 5-Difluoromethoxy-pyridine-2-carboxylic acid [(S)-3-((1R,2R)-2-amino-6,6-difluoro-4-fluoromethyl-4,4a,5,6,7,7a-hexahydro-cyclopenta[e][1,3]oxazin-4-yl)-4-fluoro-phenyl]-amide]
27 | N#Cc1ccc(C(=O)Nc2ccc(F)c([C@@]3(CF)N=C(N)O[C@]4(CF)CC(F)(F)C[C@@H]43)c2)nc1 [Example 46, 5-Cyano-pyridine-2-carboxylic acid [3-((1R,7aR)-2-(S)-amino-6,6-difluoro-4,7a-bis-fluoromethyl-4,4a,5,6,7,7a-hexahydro-cyclopenta[e][1,3]oxazin-4-yl)-4-fluoro-phenyl]-amide]
2 | NC1=N[C@](CF)(c2cc(NC(=O)c3ccc(Cl)cn3)ccc2F)[C@H]2CC(F)(F)C[C@H]2O1 [Example 4, 5-Chloro-pyridine-2-carboxylic acid [(S)-3-((1R,2R)-2-amino-6,6-difluoro-4-fluoromethyl-4,4a,5,6,7,7a-hexahydro-cyclopenta[e][1,3]oxazin-4-yl)-4-fluoro-phenyl]-amide]
660 | NC1=N[C@](CF)(c2cc(NC(=O)c3cnc(Cl)cn3)ccc2F)[C@H]2CC(F)(F)C[C@H]2O1 [Example 27, 5-Chloro-pyrazine-2-carboxylic acid [(S)-3-((1R,2R)-2-amino-6,6-difluoro-4-fluoromethyl-4,4a,5,6,7,7a-hexahydro-cyclopenta[e][1,3]oxazin-4-yl)-4-fluoro-phenyl]-amide]
8.6 | NC1=N[C@](CF)(c2cc(NC(=O)c3ccc(OCC4CC4)cn3)ccc2F)[C@H]2CC(F)(F)C[C@H]2O1 [Example 12, 5-Cyclopropylmethoxy-pyridine-2-carboxylic acid [(S)-3-((1R,2R)-2-amino-6,6-difluoro-4-fluoromethyl-4,4a,5,6,7,7a-hexahydro-cyclopenta[e][1,3]oxazin-4-yl)-4-fluoro-phenyl]-amide]
14 | NC1=N[C@](CF)(c2cc(NC(=O)c3ccc(OCC(F)(F)C(F)F)cn3)ccc2F)[C@H]2CC(F)(F)C[C@H]2O1 [Example 11, 5-(2,2,3,3-Tetrafluoro-propoxy)-pyridine-2-carboxylic acid [(S)-3-((1R,2R)-2-amino-6,6-difluoro-4-fluoromethyl-4,4a,5,6,7,7a-hexahydro-cyclopenta[e][1,3]oxazin-4-yl)-4-fluoro-phenyl]-amide]
23 | NC1=N[C@](CF)(c2cc(NC(=O)c3ccc(OCC(F)F)cn3)ccc2F)[C@H]2CC(F)(F)C[C@H]2O1 [Example 14, 5-(2,2-Difluoro-ethoxy)-pyridine-2-carboxylic acid [(S)-3-((1R,2R)-2-amino-6,6-difluoro-4-fluoromethyl-4,4a,5,6,7,7a-hexahydro-cyclopenta[e][1,3]oxazin-4-yl)-4-fluoro-phenyl]-amide]
